In assay [1] the target is HDAC1 (Homo sapiens (Human), UniProt Q13547). As to the kind of experiment: HDAC1 enzyme activity inhibition assay (HDAC1 Fluorimetric Drug Discovery Assay Kit). The format is biochemical. To be noted: test substance 100, 1000, 10000 nM; 37° C. 60 minutes, developer 30 minutes; fluorescence Ex 390, Em 460. Here is the method: (§1) The HDAC enzyme inhibition ability of the test substance was measured using the HDAC1 Fluorimetric Drug Discovery Assay Kit (Enzo life sciences: BML-AK511) and the HDAC6 human recombinant (Calbiochem: 382180). In the HDAC1 assay, the test substance was treated at concentrations of 100, 1000, and 10000 nM, and in the HDAC6 assay, the test substance was treated at concentrations of 0.1, 1, 10, 100, and 1000 nM. After sample treatment, the samples were reacted at 37° C. for 60 minutes, followed by reaction at 37° C. for 30 minutes by treatment with a developer, and fluorescence intensities (Ex 390, Em 460) thereof were measured using FlexStatin3 (Molecular device).

Assay [2] deals with HDAC6 human recombinant (Homo sapiens (Human), UniProt Q9UBN7). As to the kind of experiment: HDAC6 enzyme activity inhibition assay (fluorimetric). It counts as biochemical. To be noted: test substance 0.1-1000 nM; 37° C. 60 minutes, developer 30 minutes; fluorescence Ex 390, Em 460. Here is the method:
as §1

pIC50: −log10 of the molar value.

Chain of HDAC1 (Q13547 whole entry): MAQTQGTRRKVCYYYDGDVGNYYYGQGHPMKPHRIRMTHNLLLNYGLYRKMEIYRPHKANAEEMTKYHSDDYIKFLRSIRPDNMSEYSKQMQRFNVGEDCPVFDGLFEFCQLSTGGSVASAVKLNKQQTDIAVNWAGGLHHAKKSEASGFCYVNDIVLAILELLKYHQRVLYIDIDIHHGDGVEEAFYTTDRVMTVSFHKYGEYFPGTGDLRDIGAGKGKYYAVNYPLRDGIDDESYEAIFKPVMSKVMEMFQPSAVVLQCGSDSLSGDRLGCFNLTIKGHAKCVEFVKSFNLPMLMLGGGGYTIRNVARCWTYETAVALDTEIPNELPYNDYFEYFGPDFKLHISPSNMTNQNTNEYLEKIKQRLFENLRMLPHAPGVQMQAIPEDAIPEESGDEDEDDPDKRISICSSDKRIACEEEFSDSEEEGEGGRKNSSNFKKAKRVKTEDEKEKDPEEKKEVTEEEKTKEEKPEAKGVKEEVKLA
Chain of HDAC6 human recombinant (Q9UBN7 whole entry): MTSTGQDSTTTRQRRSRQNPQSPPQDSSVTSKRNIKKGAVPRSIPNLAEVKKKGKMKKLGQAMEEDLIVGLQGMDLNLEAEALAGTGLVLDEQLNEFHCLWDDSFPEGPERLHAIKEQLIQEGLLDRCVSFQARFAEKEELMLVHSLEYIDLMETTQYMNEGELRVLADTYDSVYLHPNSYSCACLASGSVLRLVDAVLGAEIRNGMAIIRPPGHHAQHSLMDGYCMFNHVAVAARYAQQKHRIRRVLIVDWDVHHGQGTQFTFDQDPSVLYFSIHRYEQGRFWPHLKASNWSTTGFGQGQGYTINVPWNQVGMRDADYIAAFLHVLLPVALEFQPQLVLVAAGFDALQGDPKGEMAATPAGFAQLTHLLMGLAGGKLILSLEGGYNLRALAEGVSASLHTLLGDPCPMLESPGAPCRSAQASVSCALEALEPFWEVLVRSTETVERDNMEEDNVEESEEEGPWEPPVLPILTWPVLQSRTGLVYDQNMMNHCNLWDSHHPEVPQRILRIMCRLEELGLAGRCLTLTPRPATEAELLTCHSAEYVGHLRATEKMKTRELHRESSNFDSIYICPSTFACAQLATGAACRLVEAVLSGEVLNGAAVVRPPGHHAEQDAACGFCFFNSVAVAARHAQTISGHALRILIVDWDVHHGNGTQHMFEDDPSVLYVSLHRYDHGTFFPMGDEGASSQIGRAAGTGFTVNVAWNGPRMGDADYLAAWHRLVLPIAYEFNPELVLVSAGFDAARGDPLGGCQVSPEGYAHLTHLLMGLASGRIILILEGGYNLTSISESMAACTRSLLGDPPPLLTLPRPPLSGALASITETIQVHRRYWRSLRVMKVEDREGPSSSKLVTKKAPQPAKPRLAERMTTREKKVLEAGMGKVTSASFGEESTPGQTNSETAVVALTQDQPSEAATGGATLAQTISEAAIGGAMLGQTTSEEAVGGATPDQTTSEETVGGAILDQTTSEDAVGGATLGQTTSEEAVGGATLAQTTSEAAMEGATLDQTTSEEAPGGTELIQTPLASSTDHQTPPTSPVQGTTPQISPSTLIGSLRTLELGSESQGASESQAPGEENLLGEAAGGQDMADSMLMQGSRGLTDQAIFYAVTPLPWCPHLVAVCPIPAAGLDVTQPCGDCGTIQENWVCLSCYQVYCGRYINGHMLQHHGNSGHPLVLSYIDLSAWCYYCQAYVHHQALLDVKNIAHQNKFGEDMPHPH

For `CN1C[C@@H]2C[C@H]1CN2c1c(N(Cc2ccc(-c3nnc(C(F)F)o3)cn2)c2ccccc2)c(=O)c1=O` [Compound 15, 3-(((5-(5-(difluoromethyl)-1,3,4-oxadiazol-2-yl)pyridin-2-yl)methyl)(phenyl)amino)-4-((1S,4S)-5-methyl-2,5-diazabicyclo[2.2.1]heptan-2-yl)cyclobut-3-ene-1,2-dione], the pIC50 (usually −log10 of the IC50, conventionally taken in molar units) in assay [1] is less than 5.00; in assay [2], 7.66.
